Reference: ChEMBL document CHEMBL1201862, “PubChem BioAssay data set” (2004)
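Test compounds were applied to cells in 96-well plates for 48 hours at 5 doses. Here, GI50 denotes the concentration required for 50% inhibition of growth.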 The source made the active and inactive calls. No stated cut-off is given here; in the data, active = GI50 up to about 1.1 µM and inactive = higher.

What was measured:
Experiment in all cases: NCI tumour cell line growth inhibition, 48 h
MDA-N = tested on: MDA-N
M14 = tested on: M14
786-0 = tested on: 786-0
KM12 = tested on: KM12
LOX IMVI = tested on: LOX IMVI
NCI-H226 = tested on: NCI-H226
HCC 2998 = tested on: HCC 2998
OVCAR-3 = tested on: OVCAR-3
SK-MEL-2 = tested on: SK-MEL-2
CAKI-1 = tested on: CAKI-1
SF-268 = tested on: SF-268
SK-MEL-28 = tested on: SK-MEL-28
IGROV-1 = tested on: IGROV-1
SR = tested on: SR
SW-620 = tested on: SW-620
HOP-92 = tested on: HOP-92
RXF 393 = tested on: RXF 393
MDA-MB-231 = tested on: MDA-MB-231
A549 = tested on: A549
Malme-3M = tested on: Malme-3M

Measured: GI50

COc1cc(/C=C2/Oc3c(OC)cccc3C2=O)ccc1O
inactive: MDA-N > 100 µM | M14 30.8 µM | 786-0 76.4 µM | KM12 88.5 µM | LOX IMVI 84.5 µM | NCI-H226 76 µM | HCC 2998 48.4 µM | OVCAR-3 61.2 µM | SK-MEL-2 > 100 µM | CAKI-1 36.5 µM | SF-268 > 100 µM | SK-MEL-28 > 100 µM | IGROV-1 64.6 µM | SR 29.9 µM | SW-620 > 100 µM | HOP-92 > 100 µM | RXF 393 90.2 µM | MDA-MB-231 > 100 µM | A549 > 100 µM

O=c1c2cc(I)ccc2nc(Sc2ncccc2[N+](=O)[O-])n1Cc1ccccc1
inactive: MDA-N 20.4 µM | M14 28.3 µM | 786-0 23.2 µM | KM12 27.4 µM | LOX IMVI 34.3 µM | NCI-H226 22.3 µM | HCC 2998 26.7 µM | OVCAR-3 22 µM | SK-MEL-2 7.38 µM | CAKI-1 25.8 µM | SF-268 22.1 µM | SK-MEL-28 > 100 µM | IGROV-1 13.7 µM | SR 7.08 µM | SW-620 33.1 µM | HOP-92 5.33 µM | RXF 393 13.4 µM | MDA-MB-231 21.1 µM | A549 28 µM

OC[C@@H](O)[C@H](O)[C@H](O)[C@@H](O)C1SCCCS1
inactive: MDA-N > 100 µM | M14 > 100 µM | 786-0 > 100 µM | KM12 > 100 µM | NCI-H226 > 100 µM | HCC 2998 > 100 µM | OVCAR-3 > 100 µM | SK-MEL-2 > 100 µM | CAKI-1 > 100 µM | SF-268 > 100 µM | SK-MEL-28 > 100 µM | IGROV-1 > 100 µM | SR 63.8 µM | SW-620 > 100 µM | HOP-92 17.2 µM | RXF 393 > 100 µM | MDA-MB-231 > 100 µM | A549 > 100 µM

[N-]=[N+]=Nc1c(C=O)c(=O)n(-c2ccccc2)c2ccccc12
inactive: MDA-N 37.8 µM | M14 18 µM | 786-0 18.5 µM | KM12 54.5 µM | LOX IMVI 14.8 µM | HCC 2998 19.1 µM | OVCAR-3 16.1 µM | Malme-3M 15.6 µM | SK-MEL-2 29.2 µM | CAKI-1 14 µM | SF-268 47.8 µM | SK-MEL-28 16.9 µM | IGROV-1 16.6 µM | SR 6.64 µM | SW-620 2.51 µM | HOP-92 13.4 µM | RXF 393 12.1 µM | MDA-MB-231 40.3 µM | A549 39.3 µM

COc1ccc(S(=O)(=O)NC(CCC(=O)NC(N)=O)C(=O)NC(N)=O)cc1 (stereo not given)
inactive: MDA-N > 100 µM | M14 > 100 µM | 786-0 > 100 µM | KM12 > 100 µM | LOX IMVI > 100 µM | NCI-H226 > 100 µM | HCC 2998 > 100 µM | OVCAR-3 > 100 µM | Malme-3M > 100 µM | SK-MEL-2 > 100 µM | CAKI-1 > 100 µM | SK-MEL-28 > 100 µM | IGROV-1 > 100 µM | SR > 100 µM | SW-620 > 100 µM | HOP-92 > 100 µM | MDA-MB-231 > 100 µM | A549 > 100 µM

O=C(Nn1cnn2c(=O)c3ccccc3nc2c1=O)c1ccccc1
inactive: MDA-N > 100 µM | M14 > 100 µM | 786-0 > 100 µM | KM12 > 100 µM | LOX IMVI > 100 µM | NCI-H226 > 100 µM | HCC 2998 > 100 µM | OVCAR-3 > 100 µM | Malme-3M > 100 µM | SK-MEL-2 > 100 µM | CAKI-1 > 100 µM | SF-268 > 100 µM | SK-MEL-28 > 100 µM | IGROV-1 > 100 µM | SR > 100 µM | SW-620 > 100 µM | HOP-92 > 100 µM | MDA-MB-231 > 100 µM | A549 > 100 µM

CC(C(=O)N1C(=O)N(C(=O)C(C)C(O)c2ccccc2)C(c2ccccc2)C1c1ccccc1)C(O)c1ccccc1 (stereo not given)
inactive: MDA-N > 10 µM | M14 10.5 µM | 786-0 26.1 µM | KM12 3.34 µM | LOX IMVI 11.9 µM | NCI-H226 12.4 µM | HCC 2998 20.9 µM | OVCAR-3 5.94 µM | Malme-3M 12.2 µM | SK-MEL-2 10.2 µM | SF-268 13.4 µM | SK-MEL-28 15.8 µM | IGROV-1 12.7 µM | SR 3.61 µM | SW-620 28.7 µM | HOP-92 5.92 µM | RXF 393 6.21 µM | MDA-MB-231 16.6 µM | A549 4.85 µM

C[C@@H]1C[C@H]2OC(=O)[C@@]3(C)CCC[C@@](C)([C@@H]23)[C@@]1(O)CCc1ccoc1
inactive: MDA-N > 100 µM | M14 > 100 µM | 786-0 > 100 µM | KM12 > 100 µM | LOX IMVI > 100 µM | NCI-H226 > 61.2 µM | HCC 2998 > 100 µM | OVCAR-3 > 100 µM | SK-MEL-2 > 100 µM | CAKI-1 > 100 µM | SF-268 > 100 µM | SK-MEL-28 > 100 µM | IGROV-1 > 100 µM | SR 44.5 µM | SW-620 > 100 µM | HOP-92 > 100 µM | RXF 393 > 100 µM | MDA-MB-231 > 100 µM | A549 > 100 µM
